According to article PMC6359455, “Partial Solvation Parameters of Drugs as a New Thermodynamic Tool for Pharmaceutics” (Pharmaceutics, 2019):

Tests used:
[1] = LSER descriptors by PSP approach from experimental inverse gas chromatography (IGC) data; assay type: physicochemical; settings: initial or tentative estimates; for A (PSP): LSER acidity descriptor; for B (PSP): LSER basicity descriptor; for S (PSP): LSER polarity descriptor
Protocol: (§1) Inverse gas chromatography (IGC) was used to analyze solid samples packed into a chromatographic column as stationary phase. The equipment was a surface energy analyzer (iGC-SEA) from Surface Measurement Systems Ltd. (London, UK) and about 200 mg of each drug was inserted into silanized glass columns (3 mm inner diameter) by employing a standardized packing method with silanized glass wool that was used at both ends of the column as fixation. Prior to each measurement, the samples were conditioned for 1 h at 30 °C with dry helium with 0% relative humidity at a flow rate of 15 standard cubic centimeters per minute (sccm). Dead volume of the system was determined by injecting the inert probe methane prior and after each measurement. This stationary phase was flushed with an inert carrier gas—helium in the present study. Measuring conditions were the same as applied for sample conditioning, except for a flow rate of 10 sccm that was used. For all experiments, a relative surface coverage of 5% was selected.
The extent of interactions between the solid phase of interest and the probe gas is obtained by the net retention volume VN:(31) VN=j/mF(tR−t0)T/273.15, where T is the column temperature, F is the carrier gas flow rate at 1 atm and 273.15 K, m is the sample mass, tR is the retention time of the absorbed probe gas and t0 is the mobile phase hold up time, and finally, j represents the James–Martin correction (that adjusts retention time for the pressure drop effect in the column bed). The calculated retention volume VN is then used to estimate the mass activity coefficient, Ω at infinite dilution:(32) ln(Ω)=ln(273.15R/p0M1VN)−p0(B11−V1)/RT, where po is the saturation pressure and M is the molecular mass, while B11 is the second virial coefficient and V1 holds for molar volume of the probe gas. Conversion of the mass activity coefficient Ω to mole fraction activity coefficient γ (at infinite dilution) is done via the following equation:(33) lnγ1res,∞=ln(Ω1M1/M2)−(lnr1/r2+1−r1/r2)=r1χ12. and provided the basis for further thermodynamic analysis, as described in the Results section.
The PSP approach was used to characterize the studied drugs, that is, to determine their LSER descriptors from the experimental IGC data. The McGowan volume, Vx, is an atom-specific quantity and, thus, it is obtained either from the ACD software or from the freely accessible database via their SMILES form. […].
A and B descriptors were then obtained from IGC data with hydrogen-bonding probes (acidic, like chloroform, basic, like acetone, and homosolvated, like ethanol) correlated with Equation (34).

[2] = Differential scanning calorimetry (enthalpy of fusion); assay type: physicochemical; settings: DSC, 10 °C/min, triplicate
Protocol: Differential scanning calorimetry (DSC) thermograms were obtained using a DSC 1 instrument from Mettler-Toledo AG (Greifensee, Switzerland). The instrument was calibrated for temperature and enthalpy using indium. Nitrogen was used as protective gas (150 mL/min). Samples (2–3 mg) were placed in 40 μL aluminum pans with pierced aluminum lids (Mettler-Toledo AG, Greifensee, Switzerland). The melting onset temperature (Tm) and the enthalpy of fusion (ΔHf) were determined by heating the samples at 10 °C/min from 25 °C to a maximum temperature of 300 °C. All DSC measurements were carried out in triplicate.

[3] = Surface energy components by IGC with the PSP/LSER method; assay type: physicochemical; settings: for γd (dispersion component of surface energy): IGC, Dorris–Gray method, amorphous drug, 30 °C; for γhb (hydrogen-bonding surface energy component) / γa (acidic surface energy component) / γb (basic surface energy component) / γtot (total surface energy): PSP/LSER method; for γa (acidic surface energy component) / γb (basic surface energy component): Equation (27), unit assumed; for γtot (total surface energy): Equation (36)
Protocol: as §1
The PSP framework can also be used for the estimation of the surface energy components of the studied drugs. However, there are practically no data on the total surface energies of drugs available in the literature. Instead, the dispersion components, γd, were determined by the Dorris–Gray method. This dispersion component is practically equivalent to our nonhydrogen-bonding component, γVES. Thus, we may use Equation (29) in the equivalent form of Equation (36) and obtain the total surface energy of the drugs, γtot: (36) γtot=γd3.1Vx+E+S+2AB/3.1Vx+E+S.
In a similar manner, the acidity and basicity components of the surface energy are obtained from Equation (27).

[4] = Residual solid XRPD analysis after solubility equilibration in solvents; assay type: physicochemical; settings: 24 h equilibration at room temperature in solvent
Protocol: All experiments were performed in triplicate. The drug concentration in the solvent bulk phase was determined simultaneously with a residual solid analysis of the drug by means of XRPD to detect possible solvent-mediated phase changes. Such residual solid analysis has been published before for a different miniaturized assay. […] The closed vials were equilibrated for 24 h by magnetic stirring at room temperature. […] An isocratic flow of a mixture of solvent A and solvent B was initially applied for 0.3 min at a flow rate of 0.75 mL/min. […] Table 1 summarizes the experimental conditions (initial composition of mobile phase, detection wave length) used for the different drugs. For solid state analysis, approx. 10-20 mg of the residual wet solids was manually transferred into a 96-well MultiScreen® Solubility Filter Plate (Millipore, Bedford, MA, USA) by a spatula. The filter plate was immediately sealed with adhesive acetate foil for microtest well plates (Sarstedt Inc., Newton, NC, USA) to minimize solvent evaporation. Solid state analysis of residual solids was based on a high-throughput XRPD method using a […] […] Samples were analyzed directly in the 96-well filter plate with an exposure time of 5 min per well.

[5] = Cohesive energy (solubility-parameter) components by the PSP/LSER method

Structure (SMILES)	A (PSP) [1]	B (PSP) [1]	S (PSP) [1]	ΔH^m (heat of fusion) [2] [kcal/mol]	γd (dispersion component of surface energy) [3] [mJ/m^2]	γhb (hydrogen-bonding surface energy component) [3] [mJ/m^2]	γa (acidic surface energy component) [3] [mJ/m^2]	γb (basic surface energy component) [3] [mJ/m^2]	γtot (total surface energy) [3] [mJ/m^2]	Residual solid form after solubility equilibration (XRPD) [4]	σGa (acidity PSP) [5] [MPa^0.5]	σGb (basicity PSP) [5] [MPa^0.5]	σd (dispersion PSP) [5] [MPa^0.5]	σhb (hydrogen-bonding PSP) [5] [MPa^0.5]	σp (polarity PSP) [5] [MPa^0.5]	σtot (square root of total cohesive energy density, equivalent to δtot) [5] [MPa^0.5]
COc1ccccc1OCCNCC(O)COc1cccc2[nH]c3ccccc3c12 (stereo not shown) [Carvedilol, carvedilol]	0.50	1.45	3.19	11.32 ± 0.0884	47.83	5.13	1.51	4.37	52.96	a changed solid form in dichloromethane after equilibration	3.92	6.68	19.75	8.14	9.91	
CC(=O)N1CCN(c2ccc(OCC3COC(Cn4ccnc4)(c4ccc(Cl)cc4Cl)O3)cc2)CC1 (stereo not shown) [Ketoconazole, ketoconazole]	0.00	0.7 ± 0.3	2.75	12.71 ± 0.141	45.86	0.00	0	1.84	45.86		0.00	4.26	19.52	0.00	8.45	21.27
CCOC(=O)N1CCC(=C2c3ccc(Cl)cc3CCc3cccnc32)CC1 [Loratadine, loratadine]	0.00	0.6 ± 0.2	2.96	6.685 ± 0.043	41.6	0.00			41.60				19.11		9.87	
CCC(C)(C)C(=O)O[C@H]1C[C@@H](C)C=C2C=C[C@H](C)[C@H](CC[C@@H]3C[C@@H](O)CC(=O)O3)[C@H]21 [Simvastatin, simvastatin]	0.20	0.7 ± 0.2	4.28	6.969 ± 0.198	57.36	2.64	0.71	2.47	60.00							
COc1cc(C(=O)NS(=O)(=O)c2ccccc2C)ccc1Cc1cn(C)c2ccc(NC(=O)OC3CCCC3)cc12 [Zafirlukast, zafirlukast]	0.71	2.1	4.66	4.68 ± 0.406	49.43	5.64	1.64	4.85	55.07	at least one different solid form following equilibration	4.03	6.94	19.60	9.01	10.33	23.92
